According to patent publication US11623919B2, “Heterocyclic P2X7 antagonists” (AXXAM S.P.A., priority 2017, dated 2023):

Legend:
Test in all cases: Screen Quest Fluo-8 No Wash Calcium Assay (Bz-ATP evoked Ca2+ influx, FLIPR)
Assay type in all cases: cell-based
[1] = target: T1, P2X7 receptor (Rattus norvegicus, UniProt Q64663); settings: rP2X7; HEK-293 cells stably transfected with P2X7 receptor, Bz-ATP at EC80, Fluo-8 NW; potency ranges A-D
T1 construct: rP2X7 (IC50; nM); other: rP2X7; HEK-293 cells stably transfected with P2X7 receptor, Bz-ATP at EC80, Fluo-8 NW; potency
T1 sequence (Q64663 1-595): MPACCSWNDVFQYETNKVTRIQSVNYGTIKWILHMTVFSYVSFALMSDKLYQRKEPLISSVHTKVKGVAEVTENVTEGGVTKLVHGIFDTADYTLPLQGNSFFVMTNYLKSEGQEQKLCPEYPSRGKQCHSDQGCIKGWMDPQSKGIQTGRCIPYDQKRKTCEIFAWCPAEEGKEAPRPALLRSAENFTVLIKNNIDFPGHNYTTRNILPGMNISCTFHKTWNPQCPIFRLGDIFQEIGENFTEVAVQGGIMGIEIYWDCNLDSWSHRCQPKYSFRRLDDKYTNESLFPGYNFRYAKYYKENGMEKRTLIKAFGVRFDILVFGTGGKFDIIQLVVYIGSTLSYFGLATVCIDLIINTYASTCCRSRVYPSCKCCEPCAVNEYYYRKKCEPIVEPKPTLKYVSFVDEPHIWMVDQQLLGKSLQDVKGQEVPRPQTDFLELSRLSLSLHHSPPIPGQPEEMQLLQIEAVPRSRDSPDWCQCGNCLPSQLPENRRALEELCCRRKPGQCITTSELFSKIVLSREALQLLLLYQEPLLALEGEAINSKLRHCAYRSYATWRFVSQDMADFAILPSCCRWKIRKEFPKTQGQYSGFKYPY
Method in brief: (§1)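 HEK-293 cells stably expressing P2X7 were loaded with Fluo-8 NW for 1 h at RT, then given compound, and 5 min later Bz-ATP at EC80. Fluorescence was read by FLIPR in low divalent cation buffer (0.3 mM Ca2+, 0 mM Mg2+). IC50 came from percent inhibition relative to reference antagonist A438079.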

[2] = target: T2, P2X7 receptor (Mus musculus, UniProt Q9Z1M0); settings: mP2X7; HEK-293 cells stably transfected with P2X7 receptor, Bz-ATP at EC80, Fluo-8 NW; potency ranges A-D
T2 construct: mP2X7 (IC50; nM); other: mP2X7; HEK-293 cells stably transfected with P2X7 receptor, Bz-ATP at EC80, Fluo-8 NW; potency
T2 sequence (Q9Z1M0 1-595): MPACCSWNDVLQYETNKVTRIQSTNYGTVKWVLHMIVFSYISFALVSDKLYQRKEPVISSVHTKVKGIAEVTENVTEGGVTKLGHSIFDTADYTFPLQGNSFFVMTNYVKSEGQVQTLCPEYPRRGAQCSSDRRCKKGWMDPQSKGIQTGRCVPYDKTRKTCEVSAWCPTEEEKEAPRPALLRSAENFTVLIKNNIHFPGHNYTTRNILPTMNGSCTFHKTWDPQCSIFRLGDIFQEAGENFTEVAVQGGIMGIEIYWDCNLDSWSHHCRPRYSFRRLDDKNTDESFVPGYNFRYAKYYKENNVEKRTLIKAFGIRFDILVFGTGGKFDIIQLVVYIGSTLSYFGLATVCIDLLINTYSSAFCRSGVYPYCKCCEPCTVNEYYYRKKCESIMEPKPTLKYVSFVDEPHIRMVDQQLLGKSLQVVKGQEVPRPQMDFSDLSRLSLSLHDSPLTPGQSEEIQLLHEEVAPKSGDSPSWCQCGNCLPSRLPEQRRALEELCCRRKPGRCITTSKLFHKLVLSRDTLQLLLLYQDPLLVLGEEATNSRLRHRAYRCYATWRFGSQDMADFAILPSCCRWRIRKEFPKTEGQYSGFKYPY
Method in brief: as §1

[3] = target: T3, P2X7 receptor (Homo sapiens, UniProt Q99572); parameters: hP2X7 (IC50; nM); other: hP2X7; HEK-293 cells stably transfected with P2X7 receptor, Bz-ATP at EC80, Fluo-8 NW; potency; settings: hP2X7; HEK-293 cells stably transfected with P2X7 receptor, Bz-ATP at EC80, Fluo-8 NW; potency ranges A-D
T3 sequence (Q99572 1-595): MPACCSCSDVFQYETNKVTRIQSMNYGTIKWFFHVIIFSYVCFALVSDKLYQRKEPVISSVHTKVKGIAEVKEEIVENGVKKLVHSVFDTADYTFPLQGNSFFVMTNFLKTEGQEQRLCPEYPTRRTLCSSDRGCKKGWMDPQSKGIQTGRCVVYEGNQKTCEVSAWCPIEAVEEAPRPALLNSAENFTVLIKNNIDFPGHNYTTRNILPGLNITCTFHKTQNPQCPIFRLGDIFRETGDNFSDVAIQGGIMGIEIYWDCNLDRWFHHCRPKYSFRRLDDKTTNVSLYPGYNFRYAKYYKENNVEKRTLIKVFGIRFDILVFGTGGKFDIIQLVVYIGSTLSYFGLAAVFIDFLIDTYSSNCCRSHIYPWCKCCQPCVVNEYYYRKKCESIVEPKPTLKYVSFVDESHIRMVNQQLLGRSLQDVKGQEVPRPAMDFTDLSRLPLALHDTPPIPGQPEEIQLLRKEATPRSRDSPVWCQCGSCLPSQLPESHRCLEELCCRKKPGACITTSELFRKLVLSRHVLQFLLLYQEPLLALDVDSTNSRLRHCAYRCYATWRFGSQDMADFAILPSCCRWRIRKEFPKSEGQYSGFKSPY
Method in brief: as §1

| IC50 [1] | IC50 [2] | IC50 [3] | Compound |
| --- | --- | --- | --- |
| 1000 to 10000 nM | > 10000 nM | 200 to 1000 nM | CC(c1ccccc1)n1c(Cc2ccc(F)cc2)noc1=O (stereo not drawn) [Example 10, 3-[(4-fluorophenyl)methyl]-4-(1-phenylethyl)-4,5-dihydro-1,2,4-oxadiazol-5-one] |
| < 200 nM | < 200 nM | < 200 nM | CC1CC(F)(F)CCN1Cc1noc(=O)n1Cc1c(F)cccc1Cl (stereo not drawn) [Example 226, 4-[(2-chloro-6-fluorophenyl)methyl]-3-[(4,4-difluoro-2-methylpiperidin-1-yl)methyl]-4,5-dihydro-1,2,4-oxadiazol-5-one] |
| < 200 nM | 200 to 1000 nM | 200 to 1000 nM | O=c1onc(CC2CCC(F)(F)CC2)n1Cc1ccccc1F [Example 165, 3-[(4,4-difluorocyclohexyl)methyl]-4-[(2-fluorophenyl)methyl]-4,5-dihydro-1,2,4-oxadiazol-5-one] |
| 1000 to 10000 nM | 1000 to 10000 nM | 1000 to 10000 nM | O=c1onc(Cc2c(F)cccc2Cl)n1Cc1ccccc1Cl [Example 22, 3-[(2-chloro-6-fluorophenyl)methyl]-4-[(2-chlorophenyl)methyl]-4,5-dihydro-1,2,4-oxadiazol-5-one] |
| 200 to 1000 nM | 1000 to 10000 nM | 1000 to 10000 nM | O=c1onc(CC2CCC(F)(F)CC2)n1Cc1cncs1 [Example 193, 3-[(4,4-difluorocyclohexyl)methyl]-4-[(1,3-thiazol-5-yl)methyl]-1,2,4-oxadiazol-5(4H)-one] |
| < 200 nM | 200 to 1000 nM | < 200 nM | O=c1onc(Cc2ccc(F)cc2F)n1CC1CCC(F)(F)CC1 [Example 153, 4-[(4,4-difluorocyclohexyl)methyl]-3-[(2,4-difluorophenyl)methyl]-4,5-dihydro-1,2,4-oxadiazol-5-one] |
| > 10000 nM | > 10000 nM | > 10000 nM | O=c1onc(Cc2ccc(F)cc2Cl)n1CC1CCC(F)(F)CC1 [Example 162, 3-[(2-chloro-4-fluorophenyl)methyl]-4-[(4,4-difluorocyclohexyl)methyl]-4,5-dihydro-1,2,4-oxadiazol-5-one] |
| 1000 to 10000 nM | 200 to 1000 nM | > 10000 nM | O=c1onc(Cc2ccncc2)n1CC1CCCCC1 [Example 111, 4-(cyclohexylmethyl)-3-(pyridin-4-ylmethyl)-4,5-dihydro-1,2,4-oxadiazol-5-one] |
| > 10000 nM | > 10000 nM | 1000 to 10000 nM | Cc1ncsc1Cn1c(Cc2ccc(F)cc2)noc1=O [Example 8, 3-[(4-fluorophenyl)methyl]-4-[(4-methyl-1,3-thiazol-5-yl)methyl]-4,5-dihydro-1,2,4-oxadiazol-5-one] |
| 200 to 1000 nM | 1000 to 10000 nM | 1000 to 10000 nM | COc1ccc(Cc2noc(=O)n2CC2CCCCC2)cc1 [Example 112, 4-(cyclohexylmethyl)-3-[(4-methoxyphenyl)methyl]-4,5-dihydro-1,2,4-oxadiazol-5-one] |
| > 10000 nM | > 10000 nM | 1000 to 10000 nM | Cc1ncsc1Cn1c(Cc2c(F)cccc2Cl)noc1=O [Example 31, 3-[(2-chloro-6-fluorophenyl)methyl]-4-[(4-methyl-1,3-thiazol-5-yl)methyl]-4,5-dihydro-1,2,4-oxadiazol-5-one] |
| > 10000 nM | > 10000 nM | > 10000 nM | O=c1onc(Cc2c(F)cccc2Cl)n1Cc1ncc(F)cn1 [Example 45, 3-[(2-chloro-6-fluorophenyl)methyl]-4-[(5-fluoropyrimidin-2-yl)methyl]-4,5-dihydro-1,2,4-oxadiazol-5-one] |
| > 10000 nM | > 10000 nM | > 10000 nM | O=c1onc(Cc2c(F)cccc2Cl)n1Cc1cncs1 [Example 33, 3-[(2-chloro-6-fluorophenyl)methyl]-4-(1,3-thiazol-5-ylmethyl)-4,5-dihydro-1,2,4-oxadiazol-5-one] |
| 1000 to 10000 nM | 1000 to 10000 nM | 1000 to 10000 nM | O=c1onc(Cc2cccc(Cl)c2Cl)n1Cc1c(F)cccc1Cl [Example 13, 4-[(2-chloro-6-fluorophenyl)methyl]-3-[(2,3-dichlorophenyl)methyl]-4,5-dihydro-1,2,4-oxadiazol-5-one] |
| 200 to 1000 nM | 1000 to 10000 nM | 1000 to 10000 nM | CC1CC(F)(F)CCN1Cc1noc(=O)n1Cc1ccc(F)cc1 (stereo not drawn) [Example 227, 3-[(4,4-difluoro-2-methylpiperidin-1-yl)methyl]-4-[(4-fluorophenyl)methyl]-4,5-dihydro-1,2,4-oxadiazol-5-one] |
| 1000 to 10000 nM | 1000 to 10000 nM | 1000 to 10000 nM | O=c1onc(Cc2c(F)cccc2Cl)n1Cc1c(F)cccc1Cl [Example 18, bis[(2-chloro-6-fluorophenyl)methyl]-4,5-dihydro-1,2,4-oxadiazol-5-one] |
| 200 to 1000 nM | 1000 to 10000 nM | 1000 to 10000 nM | O=c1onc(Cc2ccccc2)n1CC1CCCCC1 [Example 126, 3-benzyl-4-(cyclohexylmethyl)-4,5-dihydro-1,2,4-oxadiazol-5-one] |
| 1000 to 10000 nM | > 10000 nM | > 10000 nM | O=c1onc(CC2CCC(F)(F)CC2)n1CCc1ccccc1 [Example 172, 3-[(4,4-difluorocyclohexyl)methyl]-4-(2-phenylethyl)-4,5-dihydro-1,2,4-oxadiazol-5-one] |
| 200 to 1000 nM | 200 to 1000 nM | 200 to 1000 nM | O=c1onc(CCc2c(F)cccc2Cl)n1Cc1ccc(F)cc1 [Example 145, 3-[2-(2-chloro-6-fluorophenyl)ethyl]-4-(4-fluorobenzyl)-1,2,4-oxadiazol-5(4H)-one] |
| < 200 nM | 200 to 1000 nM | < 200 nM | O=c1onc(CC2CCC(F)(F)C2)n1Cc1c(F)cccc1Cl (stereo not drawn) [Example 205, 4-[(2-chloro-6-fluorophenyl)methyl]-3-[(3,3-difluorocyclopentyl)methyl]-4,5-dihydro-1,2,4-oxadiazol-5-one] |
| 1000 to 10000 nM | > 10000 nM | 1000 to 10000 nM | O=c1onc(Cc2c(F)cccc2Cl)n1CC1CCCOC1 (stereo not drawn) [Example 89, 3-[(2-chloro-6-fluorophenyl)methyl]-4-(oxan-3-ylmethyl)-4,5-dihydro-1,2,4-oxadiazol-5-one] |
| 1000 to 10000 nM | 1000 to 10000 nM | > 10000 nM | O=c1onc(CC2CCC(F)(F)CC2)n1Cc1cccc(C(F)(F)F)c1Cl [Example 167, 4-{[2-chloro-3-(trifluoromethyl)phenyl]methyl}-3-[(4,4-dffluorocyclohexyl)methyl]-4,5-dihydro-1,2,4-oxadiazol-5-one] |
